Laboratory results reported in patent US5382586A, “Aryl (or heteroaryl)piperazinylalkylazole derivatives, their preparation and their application as medicaments” (priority 1991, dated 1995).

Key:
[1] = test system: familiarisation process in mice; experiment: light box/dark box test: familiarisation process (improvement of cognition); format: in vivo, mouse; design: Time in the box, dark (D): unit not given here
Description: The influence of this product on the familiarisation process of mice in the light box/dark box test described by J. M. Barnes et al., (Pharmacol. Biochem. Behav., 1990, 35, 955-962) is studied. On the one hand, the effect on learning (the speed of familiarisation) and on the other hand the capacity for blocking contrary effects produced by escopolamine are studied.
The mouse is placed in the light zone of a box divided into two compartments, one brightly illuminated, the light box, and the other with little illumination, the dark box.
1) The number of times the mouse stands up on the hind paws in each compartment during a 5 minute period is counted (see Column 1 of the table below).
2) The activity in each compartment is given by counting the number of crossings through the squares which form the divisions of each compartment (see Column 2 of the table below).
3) The time passed in the dark box during the 5 minute counting period is determined (see Column 3 of the table below).
4) The initial latent period is determined, that is to say the time which elapses after the animal is placed in the light box, at the start of the test, before it enters the dark box (see Column 4 of the table below).
Two treatments with the vehicle are administered to the control animals per day. Two doses of 0.00001 ng/kg p.o. of compound 42 are administered per day to the animals treated with this product. The same operation is repeated daily for 5 days.
The animals learn to remain in the dark box for a longer period and to go into the box more rapidly.
On day six escopolamine (2×0.25 mg/kg, i.p.) is administered.
They recover the learned habit on day seven.

[2] = test system: immobility of mice; experiment: desperate behaviour test (antidepressant activity); format: in vivo, mouse; settings: i.p.
Procedure: The desperate behaviour test in mice, described by R. D. Porsolt et al. (Arch. Int. Pharmacodyn. 1977, 229, 327-336), is used.
The animals are placed for 6 minutes in a cylinder containing water, from which they are not able to escape. The period of immobility between minutes 2 and 5 is determined for groups of 10 mice per dosage tested.
The product studied is administered i.p. 1 hour before the test. In this test the immobility of the animals is explained as being produced by their depressed state resulting from being faced with an adverse and insoluble situation in a hostile environment such as water.
In our test imipramine (30 mg/kg; i.p.) was used as reference product.

[3] = day 1, 0.00001 ng/kg, p.o., twice per day
[4] = day 2, 0.00001 ng/kg, p.o., twice per day
[5] = day 3, 0.00001 ng/kg, p.o., twice per day
[6] = day 4, 0.00001 ng/kg, p.o., twice per day
[7] = day 5, 0.00001 ng/kg, p.o., twice per day
[8] = day 6, after 2 treatments with escopolamine (0.25 mg/kg, i.p.), Example 42 at 0.00001 ng/kg p.o. twice per day
[9] = day 7, 0.00001 ng/kg, p.o., twice per day

Cc1nc(Cl)c(Cl)n1CCCCN1CCN(c2ncccn2)CC1.O=C(O)CC(O)(CC(=O)O)C(=O)O [Example 42, 4,5-dichloro-2-methyl-1-{4-[4-(2-pyrimidinyl)-1-piperazinyl]-butyl}-1H-imidazole citrate]
Activity within 5 min. period, dark (D) [1, 3]: 82
Activity within 5 min. period, light (L) [1, 3]: 36
Latent period L-D [1, 3]: 11
No. of times standing erect within 5 min period, dark (D) [1, 3]: 79
No. of times standing erect within 5 min period, light (L) [1, 3]: 23
Time in the box, dark (D) [1, 3]: 60
Activity within 5 min. period, dark (D) [1, 4]: 167
Activity within 5 min. period, light (L) [1, 4]: 11
Latent period L-D [1, 4]: 2
No. of times standing erect within 5 min period, dark (D) [1, 4]: 147
No. of times standing erect within 5 min period, light (L) [1, 4]: 10
Time in the box, dark (D) [1, 4]: 80
Activity within 5 min. period, dark (D) [1, 5]: 179
Activity within 5 min. period, light (L) [1, 5]: 10
Latent period L-D [1, 5]: 2
No. of times standing erect within 5 min period, dark (D) [1, 5]: 156
No. of times standing erect within 5 min period, light (L) [1, 5]: 8
Time in the box, dark (D) [1, 5]: 79
Activity within 5 min. period, dark (D) [1, 6]: 183
Activity within 5 min. period, light (L) [1, 6]: 9
Latent period L-D [1, 6]: 1.5
No. of times standing erect within 5 min period, dark (D) [1, 6]: 161
No. of times standing erect within 5 min period, light (L) [1, 6]: 9
Time in the box, dark (D) [1, 6]: 83
Activity within 5 min. period, dark (D) [1, 7]: 176
Activity within 5 min. period, light (L) [1, 7]: 12
Latent period L-D [1, 7]: 1
No. of times standing erect within 5 min period, dark (D) [1, 7]: 151
No. of times standing erect within 5 min period, light (L) [1, 7]: 11
Time in the box, dark (D) [1, 7]: 82
Activity within 5 min. period, dark (D) [1, 8]: 181
Activity within 5 min. period, light (L) [1, 8]: 14
Latent period L-D [1, 8]: 1.5
No. of times standing erect within 5 min period, dark (D) [1, 8]: 172
No. of times standing erect within 5 min period, light (L) [1, 8]: 10
Time in the box, dark (D) [1, 8]: 81
Activity within 5 min. period, dark (D) [1, 9]: 187
Activity within 5 min. period, light (L) [1, 9]: 8
Latent period L-D [1, 9]: 1
No. of times standing erect within 5 min period, dark (D) [1, 9]: 181
No. of times standing erect within 5 min period, light (L) [1, 9]: 8
Time in the box, dark (D) [1, 9]: 83
effect on the effects of escopolamine ([1]; escopolamine 2×0.25 mg/kg, i.p., day six): blocks the effects of escopolamine
cognition-improving activity ([1]; mice): has a cognition-improving activity
effect on the learning process ([1]; mice): improves the learning process
Period of immobility ([2]; 1 mg/kg, p < 0.05, control 118 s): 64 s
antidepressant activity (reduction of the period of immobility) ([2]; mice): significantly reduces the period of immobility
